The values that follow come from US20050020542A1, “Method of modulating sodium ion absorption in epithelial cells” (priority 2001, published 2005).

Molecules are shown by their SMILES. “Also recorded” adds a separate entry of the source.

For series [1], the system named is Ca2+ activated Cl- secretion. Nature of the series: ATP-stimulated Cl- secretion after amiloride in Ussing chambers. In kind it is cell-based, human. The settings on record: repeated exposure 1-2.5 μM over 96 hours, then amiloride, then apical ATP. The protocol:
FIG. 3 is a graph showing the effect of repeated exposure to INO-E2 on physiological parameters in CFHNE. 2.5 μM INO-E2 was added every 24 hrs for 4 days. Effects on Isc in CFHNE, passage 2 are depicted. Every 24 hrs medium in the basolateral compartment was exchanged with fresh medium containing 2.5 μM INO-E2. On the 4th day the monolayers were mounted in Ussing chambers and basal Isc, conductance and resistance measured. After a stable baseline was reached, amiloride was added to determine the amiloride-inhibitable-Isc. Under these conditions, subsequent apical addition of the Ca^2+-mobilizing agent, ATP, allows Cl^− secretion to be examined in isolation.
The therapeutic potential of INO-E2 was investigated by using protocols that model in vivo treatments. In this experiment the effects of repeated exposure to a low dose of INO-E2 (2.5 μM) on basal Isc and responsiveness to calcium-mobilizing agonists (ATP) in human nasal CF epithelia (CFHNE) was tested. […] T here was no apparent difference in responses to compound added to the apical or basolateral compartment. This series of experiments provides information that useful for deriving the optimal therapeutic dose and delivery schedule for in vivo tests.

For series [2], the system named is human CF nasal epithelia. Briefly: Blue Dextran volume transport assay (fluid absorption). The format is cell-based. An excerpt:
In normal human airway epithelia, Na^+ and Cl^− currents (CFTR and Ca^2+-activated Cl^− currents) contribute to airway surface liquid (ASL) fluid volume regulation depending on signaling equilibria. In contrast, in human CF airway epithelia, Na^+ currents through ENaC dominate basal ASL volume regulation accompanied by a relatively minor contribution through Ca^2+-activated Cl^− currents. The combination of enhanced ENaC currents and transient Ca^2+-activated Cl^− currents in CF result in an inadequate hydration of the ASL and reduction of mucociliary clearance. Since INO-E2 reduces Na^+ transport through ENaC, we hypothesized that INO-E2 would have a functional effect, similar to amiloride, and inhibit fluid absorption. To test this hypothesis, we exposed well differentiated monolayer cultures of CF nasal epithelia to an apically applied buffer containing INO-E2 and a known concentration of the non-permeable molecule Blue Dextran (BD). The resulting reduction in the ability of these monolayers to concentrate BD was taken as a functional indicator of INO-E2's involvement in the inhibition of ENaC.
HEPES Modified Ringer's Buffer (HMRB) was used for these assays. HMRB was sterilized by positive pressure filtration through a 0.2 um syringe tip filter (Gelman acrodisc). The BD stock solution was aseptically prepared with sterile buffer (2 mg BD/ml buffer). Compounds to be tested were solubilized in sterile HMRB containing 1 μM BD (final concentration of vehicle is 0.1% (1:1, DMSO+DMSO containing 5% pluronic-F127). […] A standard concentration curve was obtained by determining the optical densities of a serial dilution of 10 μM Blue Dextran in HMRB placed in a Falcon 3027 96-well plate. The optical density of BD in the solution was obtained by analysis at 660 nm in a Packard Spectracount. Standards and samples were analyzed on the same plate. 50 μl volumes were used for all samples and standards. The [BD] of the samples was determined by extrapolation from the standard curve using the Packard I-Smart software. The increase in [BD] from the starting value of 1 μM was taken to be an indication of the magnitude of volume absorption occurring across the monolayer. The rate of absorption was calculated by dividing the change in volume by the duration of the experiment. This value was normalized to a surface area of 1 cm^2, to give μl·cm^2−1·hr^−1. To address evaporative loss, which would appear in the data as artificially high absorptive rates, dummy membranes were constructed by attaching a thin Sylgard sheet to snapwells/transwells with silicon sealant. These dummy membranes were used in parallel with the epithelial monolayers to assess evaporative loss for each experiment.

Series [3] has as its system CFHNE monolayers. Briefly: Monolayer resistance / tight junction integrity in Ussing chambers (toxicity). In kind it is cell-based, human. The protocol: 3. In addition, delayed toxic effects could result in long-term damage of the monolayers that would not become apparent for several hours. Therefore, it is of interest to note whether the resistance or conductance was affected during this period. A reduction in resistance in monolayers treated with compound could indicate weakened tight junctions.
[…] […] As a control, the effect of pretreatment with phosphate-propionoxymethyl ester (26.6 μM) was tested using the same protocol.

As for `CCCCCCCCOC1C(OC(=O)CCC)C(OP(=O)(OCOC(=O)CC)OCOC(=O)CC)C(OP(=O)(OCOC(=O)CC)OCOC(=O)CC)C(OP(=O)(OCOC(=O)CC)OCOC(=O)CC)C1OP(=O)(OCOC(=O)CC)OCOC(=O)CC` (stereo not drawn) [INO-E2, 2-O-butyryl-1-O-octyl-myo-inositol 3,4,5,6-tetrakisphosphate octakis (propionoxymethyl) ester], in series [1], the “response to ATP (Ca2+ activated Cl- secretion) in treated monolayers” value is recorded as “augments subsequent stimulation of Ca^2+ activated Cl^− secretion; also recorded: elevated”. Besides, in series [2] (2 hours each day for 8 days at 0.1 μM or 1 μM, n=6), the “change of potency on fluid absorption with repeat administration” value is “enhancement of compound potency”. In addition, the “potency compared with amiloride in fluid secretion assay” value in series [2] (comparison 100 μM amiloride) is recorded as “as potent as amiloride”. In series [2] (conditions that model therapeutic exposure times), the “duration of effects compared with amiloride” value is reported as “longer-lasting”. The “duration of effect on fluid secretion following a brief (pulsed) exposure” value in series [2] (pulsed exposure, FIG. 17) is listed as “prolonged effects”. The “toxicity on repeated exposure (deterioration of tight junctions)” value in series [3] (1-2.5 μM repeatedly over 96 hours) is given as “no indication of toxicity; also recorded: No evidence of toxicity”. Moreover, the “toxic effects as evaluated by tight junction integrity” value in series [3] (2 hr exposure 24 hrs before, up to highest concentration 200 μM) was “no apparent toxic effects”. Moreover, the “integrity of the monolayers at high concentration” value in series [3] (concentrations in 100 fold excess of the acute EC50) is listed as “no decrement in the integrity of the monolayers”. The monolayer resistance entry in series [3] (measured shortly after mounting, highest concentration 200 μM) is on record as “increased”.
